Assay results taken from PubChem BioAssay (NCI).
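Step 1: Grow cells in 96-well plates. Step 2: Expose to compound for 48 hours at 5 concentrations. Step 3: Interpolate endpoints linearly; if unreached, use highest concentration. GI50 marks 50% less growth. At the TGI there is no net growth.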

What was measured:
Test in all cases: DTP human tumour cell line panel, 48 h; in the data active means GI50 below about 0.43 µM; inactive means the rest
MOLT-4 leukemia = tested on: MOLT-4 leukemia
CAKI-1 renal = tested on: CAKI-1 renal
TK-10 renal = tested on: TK-10 renal
SK-MEL-28 melanoma = tested on: SK-MEL-28 melanoma
SF-539 CNS = tested on: SF-539 CNS
UACC-62 melanoma = tested on: UACC-62 melanoma
A498 renal = tested on: A498 renal
HT29 colon = tested on: HT29 colon
SN12C renal = tested on: SN12C renal
PC-3 prostate = tested on: PC-3 prostate

Clc1cc2nsnc2c(Cl)n1
> 100 µM: TGI (UACC-62 melanoma) | TGI (A498 renal)
43.6 µM: TGI (MOLT-4 leukemia)
44.4 µM: TGI (SK-MEL-28 melanoma)
49.3 µM: TGI (HT29 colon)
44 µM: TGI (TK-10 renal)
46.1 µM: TGI (SF-539 CNS)
24.5 µM: TGI (CAKI-1 renal)

O=C(Nc1ccccc1)NS(=O)(=O)c1ccc(-n2nc3c(c2-c2cccs2)Cc2ccccc2-3)cc1
64.2 µM: TGI (SN12C renal)
44.1 µM: TGI (CAKI-1 renal)
55.5 µM: TGI (SF-539 CNS)
> 100 µM: TGI (MOLT-4 leukemia) | TGI (SK-MEL-28 melanoma) | TGI (HT29 colon) | TGI (PC-3 prostate)
35 µM: TGI (UACC-62 melanoma)
inactive: GI50 (MOLT-4 leukemia) 15.5 µM | GI50 (CAKI-1 renal) 11.1 µM | GI50 (TK-10 renal) 4.99 µM | GI50 (SN12C renal) 19.9 µM | GI50 (SK-MEL-28 melanoma) 50.2 µM | GI50 (SF-539 CNS) 25 µM | GI50 (UACC-62 melanoma) 15.8 µM | GI50 (HT29 colon) 26.7 µM | GI50 (PC-3 prostate) 10.4 µM
30.8 µM: TGI (TK-10 renal)

Cn1c2ccccc2c2c(Nc3ccccc3)c3ccccc3nc21
38.7 µM: TGI (CAKI-1 renal)
43.8 µM: TGI (TK-10 renal)
47.3 µM: TGI (SN12C renal)
18.6 µM: TGI (UACC-62 melanoma)
> 100 µM: TGI (MOLT-4 leukemia)
48.1 µM: TGI (PC-3 prostate)
28.6 µM: TGI (SF-539 CNS)
60.7 µM: TGI (HT29 colon)
49.6 µM: TGI (SK-MEL-28 melanoma)
inactive: GI50 (MOLT-4 leukemia) 7.89 µM | GI50 (CAKI-1 renal) 16.7 µM | GI50 (TK-10 renal) 15.8 µM | GI50 (SN12C renal) 16.5 µM | GI50 (SK-MEL-28 melanoma) 17 µM | GI50 (SF-539 CNS) 12.1 µM | GI50 (UACC-62 melanoma) 4.56 µM | GI50 (HT29 colon) 5.66 µM | GI50 (PC-3 prostate) 11.7 µM

O=C(O)CCc1coc2ccc(O)cc12
> 100 µM: TGI (MOLT-4 leukemia) | TGI (CAKI-1 renal) | TGI (TK-10 renal) | TGI (SN12C renal) | TGI (SK-MEL-28 melanoma) | TGI (SF-539 CNS) | TGI (UACC-62 melanoma) | TGI (A498 renal) | TGI (HT29 colon)

Cc1nc2ccccc2c(=O)n1-c1ccccc1I
> 100 µM: TGI (MOLT-4 leukemia) | TGI (CAKI-1 renal) | TGI (TK-10 renal) | TGI (SN12C renal) | TGI (SK-MEL-28 melanoma) | TGI (UACC-62 melanoma) | TGI (A498 renal) | TGI (HT29 colon)

COC1CCC2C(NS(=O)(=O)c3ccc(C)cc3)CCCC2O1 (stereo not drawn) (tested in a mixture with another compound)
> 34.5 µM: TGI (CAKI-1 renal) | TGI (TK-10 renal) | TGI (SN12C renal) | TGI (SK-MEL-28 melanoma) | TGI (SF-539 CNS) | TGI (UACC-62 melanoma) | TGI (A498 renal) | TGI (HT29 colon)
20.9 µM: TGI (MOLT-4 leukemia)

CC1=C(C(=O)Nc2ccc(Cl)c(Cl)c2)C(c2cccc(Oc3ccccc3)c2)NC(=S)N1 (stereo not drawn)
15.4 µM: TGI (CAKI-1 renal)
29.1 µM: TGI (PC-3 prostate)
13 µM: TGI (SF-539 CNS)
15.9 µM: TGI (SN12C renal)
inactive: GI50 (MOLT-4 leukemia) > 50 µM | GI50 (CAKI-1 renal) 8.48 µM | GI50 (TK-10 renal) 11.3 µM | GI50 (SN12C renal) 8.75 µM | GI50 (SF-539 CNS) 6.6 µM | GI50 (UACC-62 melanoma) 7.81 µM | GI50 (PC-3 prostate) 9.71 µM
> 50 µM: TGI (MOLT-4 leukemia)
19.7 µM: TGI (TK-10 renal)
14.6 µM: TGI (UACC-62 melanoma)

O=C(/C=C/c1ccccc1)NC1C=Nc2ccc(Cl)cc2NC1=O (stereo not drawn)
> 100 µM: TGI (CAKI-1 renal) | TGI (TK-10 renal) | TGI (SN12C renal) | TGI (SK-MEL-28 melanoma) | TGI (UACC-62 melanoma) | TGI (A498 renal) | TGI (HT29 colon)
88.2 µM: TGI (SF-539 CNS)
27.3 µM: TGI (MOLT-4 leukemia)

O=C1C2C(C(=O)N1OS(=O)(=O)c1ccccc1)N(Cc1ccccc1)C(=O)N2Cc1ccccc1 (stereo not drawn)
> 100 µM: TGI (MOLT-4 leukemia) | TGI (CAKI-1 renal) | TGI (TK-10 renal) | TGI (SN12C renal) | TGI (SK-MEL-28 melanoma) | TGI (SF-539 CNS) | TGI (UACC-62 melanoma) | TGI (A498 renal) | TGI (HT29 colon)

O=C(O)CSc1ccc([N+](=O)[O-])cc1[N+](=O)[O-]
> 100 µM: TGI (CAKI-1 renal) | TGI (TK-10 renal) | TGI (SN12C renal) | TGI (SK-MEL-28 melanoma) | TGI (UACC-62 melanoma) | TGI (A498 renal) | TGI (HT29 colon) | TGI (PC-3 prostate)

CN1C(=O)C(C)(C)C2(SC(C)(C)C2(C)C)N(C)C1=S (stereo not drawn)
> 100 µM: TGI (MOLT-4 leukemia) | TGI (CAKI-1 renal) | TGI (SN12C renal) | TGI (SK-MEL-28 melanoma) | TGI (SF-539 CNS) | TGI (UACC-62 melanoma) | TGI (HT29 colon)

CC1(C)CCc2c(c3c(c4c(=O)c(O)c(-c5ccc(O)cc5)oc24)OC(C)(C)CC3)O1
inactive: GI50 (MOLT-4 leukemia) 37.2 µM | GI50 (CAKI-1 renal) > 100 µM | GI50 (TK-10 renal) 36.6 µM | GI50 (SN12C renal) 82.9 µM | GI50 (SK-MEL-28 melanoma) > 100 µM | GI50 (UACC-62 melanoma) > 100 µM | GI50 (HT29 colon) > 100 µM | GI50 (PC-3 prostate) > 100 µM
> 100 µM: TGI (MOLT-4 leukemia) | TGI (CAKI-1 renal) | TGI (TK-10 renal) | TGI (SN12C renal) | TGI (SK-MEL-28 melanoma) | TGI (UACC-62 melanoma) | TGI (HT29 colon) | TGI (PC-3 prostate)

C/C(CC(=O)CCC(=O)Nc1cccc(C(F)(F)F)c1)=N\NC(=O)NN
> 100 µM: TGI (MOLT-4 leukemia) | TGI (CAKI-1 renal) | TGI (TK-10 renal) | TGI (SN12C renal) | TGI (SK-MEL-28 melanoma) | TGI (SF-539 CNS) | TGI (UACC-62 melanoma) | TGI (A498 renal) | TGI (HT29 colon)

COC(=O)CC1CCN(C#N)CC1CC[N+](=O)[O-] (stereo not drawn)
> 100 µM: TGI (MOLT-4 leukemia) | TGI (CAKI-1 renal) | TGI (TK-10 renal) | TGI (SN12C renal) | TGI (SK-MEL-28 melanoma) | TGI (SF-539 CNS) | TGI (UACC-62 melanoma) | TGI (A498 renal)

NC(Cc1c[nH]c2c(O)cccc12)C(=O)O (stereo not drawn)
> 100 µM: TGI (MOLT-4 leukemia) | TGI (CAKI-1 renal) | TGI (TK-10 renal) | TGI (SN12C renal) | TGI (SK-MEL-28 melanoma) | TGI (SF-539 CNS) | TGI (UACC-62 melanoma) | TGI (HT29 colon) | TGI (PC-3 prostate)
inactive: GI50 (MOLT-4 leukemia) > 100 µM | GI50 (CAKI-1 renal) > 100 µM | GI50 (TK-10 renal) > 100 µM | GI50 (SN12C renal) > 100 µM | GI50 (SK-MEL-28 melanoma) > 100 µM | GI50 (SF-539 CNS) > 100 µM | GI50 (UACC-62 melanoma) > 100 µM | GI50 (HT29 colon) > 100 µM | GI50 (PC-3 prostate) > 100 µM

N#CC(c1ccc(Cl)cc1)c1cccc(C(C#N)c2ccc(Cl)cc2)n1 (stereo not drawn)
10.9 µM: TGI (A498 renal)
69.9 µM: TGI (TK-10 renal)
> 100 µM: TGI (MOLT-4 leukemia) | TGI (CAKI-1 renal) | TGI (SN12C renal) | TGI (SK-MEL-28 melanoma) | TGI (UACC-62 melanoma) | TGI (HT29 colon)

CCOc1ccc(NC(=O)C(=O)CC(=O)c2c[n+](=O)c3cc(C)c(C)cc3n2[O-])cc1
> 100 µM: TGI (MOLT-4 leukemia) | TGI (CAKI-1 renal) | TGI (TK-10 renal) | TGI (SN12C renal) | TGI (SK-MEL-28 melanoma) | TGI (SF-539 CNS) | TGI (UACC-62 melanoma) | TGI (A498 renal) | TGI (HT29 colon)

CC1(c2ccc(F)cc2)C(C#N)C(=O)NC(=O)C1C#N (stereo not drawn)
> 100 µM: TGI (MOLT-4 leukemia) | TGI (CAKI-1 renal) | TGI (TK-10 renal) | TGI (SN12C renal) | TGI (SK-MEL-28 melanoma) | TGI (SF-539 CNS) | TGI (UACC-62 melanoma) | TGI (A498 renal) | TGI (HT29 colon)

Cc1ccc(N=Nc2ccc(N(CCC#N)CCC#N)cc2C)c(Br)c1
45.1 µM: TGI (MOLT-4 leukemia)
27.4 µM: TGI (HT29 colon)
66.3 µM: TGI (TK-10 renal)
> 100 µM: TGI (SN12C renal) | TGI (SK-MEL-28 melanoma) | TGI (SF-539 CNS) | TGI (UACC-62 melanoma) | TGI (A498 renal)
24.6 µM: TGI (CAKI-1 renal)
